We go through two molecules from patent publication US11884649B2, “IRE1α inhibitors and uses thereof” (The Regents of the University of California, priority 2020, dated 2024).

One test addresses T1, IRE1α* (Homo sapiens, UniProt O75460).
T1 construct: human IRE1α (residues 547-977, IRE1α*) was expressed in SF9 insect cells; His6 (N); made in house; host or cells: Sf9 insect cells (Bac-to-Bac baculovirus)
Kind of test: In vitro kinase activity assay (IRE1α kinase inhibition). Type of test: biochemical. In outline:
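His6-tagged human IRE1α cytosolic kinase/RNase domains (residues 547-977) from SF9 cells, preincubated 30 min with inhibitor (top 10 or 60 μM, three-fold dilutions) in pH 7.5 HEPES/MgCl2 buffer, then 10 μCi [γ-32P]ATP, 23 °C, 3 h. Filter-spot autoradiography; inhibition normalised to no-kinase and DMSO wells; IC50 from one-site fit.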

In test [1] the test system is INS-1 cells expressing IRE1α under Dox control. Briefly: RNA-Seq profiling of INS-1 cells conditionally overexpressing IRE1α. Type of test: cell-based, rat. To be noted: 20 μM, 5 ng/mL Dox. The protocol: Next, to systematically compare the transcriptomic effects of PAIR1 and KIRA9, we profiled INS-1 cells that conditionally overexpress IRE1α by RNA Seq. As above (FIGS. 4A-4K), IRE1α overexpression was induced with doxycycline (Dox) and cells were treated with either DMSO, or equivalent concentrations of PAIR1 or KIRA9. Total RNA was submitted for sequencing across entire transcripts. The dense coverage of this dataset enabled us to distinguish the endogenous rat IRE1α expression from the induced mouse IRE1α transgene; there was greater than 10-fold induction of transgene expression with doxycycline (FIG. 22). Dense coverage across the Xbp1 locus also enabled quantification of XBP1 splicing based on the reduced density of reads mapping to the noncanonical XBP1 intron. Consistent with measurements of XBP1 splicing by isoform-specific PCR (FIG. 4C), overexpression induced XBP1 splicing was preserved in both DMSO and PAIR1-treated cells, but blocked in KIRA9-treated cells at 4 hours (FIGS. 23A-23B).
RNA Isolation and Preparation
Isogenic IRE1α-overexpressing INS-1 cells were pre-treated with inhibitors for 1 h followed by addition of Dox 5 ng/mL for 4 h and 24 h as indicated. All conditions for RNAseq analysis were performed in three biological replicates. RNA was isolated from whole cells using Qiagen RNeasy with gDNA eliminator kit. RNA purity was determined using a NanaPhotometer spectrometer (IMPLEN, CA, USA). RNA integrity and quantitation were assessed using the RNA Nano 6000 Assay Kit of the Bioanalyzer 2100 system (Agilent Technologies, CA, USA).
Quantification of Gene Expression Level
HTSeq v0.6.1 was used to count the reads numbers mapped to each gene. And then FPKM of each gene was calculated based on the length of the gene and reads count mapped to this gene.
Differential Expression Analysis
Differential expression analysis of two conditions/groups (three biological replicates per condition) was performed using the DESeq R package (1.18.0). DESeq provide statistical routines for determining differential expression in digital gene expression data using a model based on the negative binomial distribution. The resulting P-values were adjusted using the Benjamini and Hochberg's approach for controlling the false discovery rate. Genes with an adjusted P-value<0.05 found by DESeq were assigned as differentially expressed.

For test [2], the system named is XBP1 mRNA splicing / RIDD. Briefly: XBP1 splicing and Blos1 mRNA in LPS-treated splenocytes. The settings on record: LPS treatment. It is filed as cell-based, mouse.
Test [3] relates to INS-1 cells expressing IRE1α under Dox control. Kind of test: Apoptosis in IRE1α-overexpressing INS-1 cells (cleaved caspase 3 immunoblot, Annexin V staining). Type of test: cell-based, rat. To be noted: 20 μM, 5 ng/mL Dox. The method, then: Western Blotting and Antibodies
For protein analysis, cells were lysed into modified RIPA buffer (50 mM Tris, 150 mM NaCl, 10 mM NaF, 1% NP40 (v/v), 0.25% sodium deoxycholate (w/v), 5% glycerol (v/v), pH 7.8) containing protease inhibitor (Pierce Protease Inhibitor Tablets and 1 mM PMSF) and phosphatase inhibitor (Phosphatase inhibitor cocktail 2 and 3, Sigma Aldrich) prior to gel loading. Western blots were performed using Any kD™ Mini-PROTEAN® TGX™ Precast protein gels (BioRad). Gels were ran using Tris-Glycine running buffer (25 mM Tris pH 8.6, 192 mM glycine, 0.1% SDS (w/v)) at 180 V. Gels were transferred to nitrocellulose paper using the TransBlot Turbo System (BioRad) at 25 V, 2.5 A for 15 minutes. Nitrocellulose blots were blocked for 30 minutes at room temperature with Odyssey blocking buffer (Li-Cor). Primary antibodies were diluted into blocking buffer and incubated over night at 4° C. Blots were washed 2× with TBST (20 mM Tris pH 7.5, 150 mM NaCl, 0.1% Tween-20) and incubated with near-infrared-dye-conjugated secondary antibodies (Li-Cor) for 1 hour at room temperature. Blots were imaged using a Li-Cor Odyssey IR Imager and quantitated using ImageStudio. The following primary antibodies were used in this study: rabbit anti-IRE1α mAb #14C10 (Cell Signaling, no. 3294), mouse anti-FLAG (DYKDDDDK (SEQ ID NO:24) mAb (Sigma Aldrich, no. F3165), rabbit anti-spliced XBP1 (Cell Signaling, no. 12782), rabbit anti-caspase 3 (Cell Signaling, no. 9662), rabbit anti-cleaved caspase 3 (Cell Signaling, no. 9661), mouse anti-proinsulin (Santa Cruz Biotechnology, no. sc-9168), and rabbit anti-GAPDH (Santa Cruz Biotechnology, no. sc-25778).
For assaying apoptosis by Annexin V staining, cells were plated in 12-well plates overnight. Cells were then treated with various reagents for indicated time periods. On the day of flow cytometry analysis, cells were trypsinized and washed in PBS and resuspended in Annexin V binding buffer with Annexin-V FITC (BD Pharmingen™). Flow cytometry was performed on a Becton Dickinson LSRII flow cytometer.
In general terms: Immunoblotting shows a protein as a band on a membrane.

T1 sequence (O75460 547-977): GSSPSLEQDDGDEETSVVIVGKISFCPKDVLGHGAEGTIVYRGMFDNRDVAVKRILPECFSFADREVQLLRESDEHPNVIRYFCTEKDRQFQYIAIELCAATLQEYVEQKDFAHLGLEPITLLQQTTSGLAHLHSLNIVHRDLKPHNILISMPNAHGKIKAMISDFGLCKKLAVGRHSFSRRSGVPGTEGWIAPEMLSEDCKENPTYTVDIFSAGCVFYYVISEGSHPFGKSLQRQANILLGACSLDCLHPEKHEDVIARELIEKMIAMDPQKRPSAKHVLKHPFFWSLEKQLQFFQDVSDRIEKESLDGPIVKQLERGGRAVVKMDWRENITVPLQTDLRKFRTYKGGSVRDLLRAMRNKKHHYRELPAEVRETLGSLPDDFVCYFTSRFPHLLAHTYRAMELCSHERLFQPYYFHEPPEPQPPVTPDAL

For the molecule `O=S(=O)(CC(F)(F)F)Nc1ccc(Oc2ncccc2-c2ccnc(N[C@H]3CCCNC3)n2)c2ccccc12` (stereo in doubt) [PAIR1, 2,2,2-trifluoro-N-(4-(3-(2-(piperidin-3-ylamino)pyrimidin-4-yl)pyridin-2-yloxy)naphthalen-1-yl)ethanesulfonamide], the concentration for half-maximal inhibition (IC50) at IRE1α* (IRE1α kinase inhibition, read-out: IC50 IRE1a) turned out to be 0.025 µM. In test [1], the TXNIP upregulation result is “blocked”, the “downregulation of RIDD genes” value is listed as “antagonized”, the “global decrease of secretome transcripts” value is “blocked” and the “upregulation of apoptosis genes” value is “largely blunted”. Further, in test [1] (4 hours), the “XBP1 splicing (read coverage)” value is listed as “preserved”. For the same molecule, the “XBP1 splicing (read coverage)” value in test [1] (24 hours) is “preserved”. For the same molecule, in test [2], the “Blos1 mRNA decay” value was “significantly rescued” and the “XBP1 mRNA splicing” value is given as “reversed with KIRA9, but not with PAIR1”. In test [3], the “Annexin-V positivity (mitochondrial apoptosis assay)” value is on record as “significant cytoprotective efficacy” and the “generation of cleaved caspase 3” value is listed as “markedly reduced”.

Regarding `O=S(=O)(CCC(F)(F)F)Nc1ccc(Oc2ncccc2-c2ccnc(NC3CCCNC3)n2)c2ccccc12` (stereo not shown) [KIRA9, 3,3,3-trifluoro-N-(4-(3-(2-(piperidin-3-ylamino)pyrimidin-4-yl)pyridin-2-yloxy)naphthalen-1-yl)propane-1-sulfonamide], the Ki at IRE1α* (read-out: Inhibition of IRE1α*'s kinase activity, Ki) worked out at 0.16 µM. Moreover, in test [1], the TXNIP upregulation result is recorded as “blocked”, the “downregulation of RIDD genes” value is on record as “antagonized”, the “global decrease of secretome transcripts” value is given as “blocked” and the “upregulation of apoptosis genes” value is recorded as “largely blunted”. The “XBP1 splicing (read coverage)” value in test [1] (4 hours) is recorded as “blocked”. Besides, in test [1] (24 hours), the “XBP1 splicing (read coverage)” value is “partially decreased”. Besides, in test [2], the “Blos1 mRNA decay” value was “significantly rescued” and the “XBP1 mRNA splicing” value is listed as “reversed”. Moreover, in test [3], the “Annexin-V positivity (mitochondrial apoptosis assay)” value is “significant cytoprotective efficacy” and the “generation of cleaved caspase 3” value was “markedly reduced”.

In general, IC50 refers to the concentration at which inhibition is half-maximal. One may read the Ki as the dissociation constant of the complex between target and ligand, obtained from inhibition or displacement.
